Data published in patent publication US20240239790A1, “7-Morpholino-1,6-Naphthyridin-5-yl Derivatives and Pharmaceutical Compositions Thereof Useful as DNA-PK Inhibitor” (adMare Therapeutics Society, priority 2021, published 2024).
Where two headings read alike, the source gives them in different places.

How the values were obtained:
[1] = target: T1, DNA-PK phosphorylation at Serine 2056 (Homo sapiens, UniProt P78527); test: Cellular Assay for Inhibition of DNA-PK Phosphorylation at Serine 2056 in FaDu cells (sandwich ELISA, neocarzinostatin); format: cell-based; conditions: pSer2056 DNA-PK, Table 3
T1 construct: FaDu cells were purchased from ATCC; host or cells: FaDu
Summary of the method: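 pSer2056 and total DNA-PK were measured by sandwich ELISA in BCA-normalised FaDu lysates. Cells had 1 h compound exposure (0.3% DMSO), then 2 h with 1 μg/mL final neocarzinostatin. IC50 was fitted (variable slope) to % inhibition scaled against NCS-stimulated and DMSO-only controls.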

[2] = system: pH2AX induction in HCT116 ATM-/- multicellular tumour spheroids; test: Prodrug Radiation Sensitization in Multicellular Tumour Spheroids, inhibition of pH2AX induction following radiation; format: cell-based; conditions: Homo sapiens, HCT-116, 20 Gy
Summary of the method: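 Endpoint: pH2AX (ser 139) or pDNA-PK (ser 2056) in cryosections fixed 1 or 2 h after 20 Gy, comparing oxygenated outer with hypoxic inner layers. Spheroids of ~0.5 mm (HCT116, FaDu; ATM-deficient cells used) held at 20% or 5% O2, 37 °C, stirred. Prodrug range 3.5 nM–10 μM.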

FaDu cell line = test: Prodrug Activation in Hypoxic Stirred Tumour Cell Suspensions; conditions: 10 μM, 4 hours
Method: Prodrug compounds were assayed to determine their stability and rate of activation in stirred cell suspensions under 0.2 vs 5% oxygen. Compounds were diluted 1:1000 from DMSO stocks to 10 μM final concentration in tumour cell suspensions (1% by cell volume) in MEM media containing 10% FBS, 10 mM glucose & 3.7 g/L sodium bicarbonate. Cell lines assayed included A253, A549, Detroit562, FaDu, HCT116, HEP G2, HT29, SCC25, SCC9, SiHa & TC32. Compounds and cells were then incubated for 4 hours under constant mixing at 37° C. under 5% CO2 and either 0.2 or 5% O2. Following the incubation period cellular activation of the compounds was assayed via MeOH extraction and HPLC quantification.

[3] = 5% O2, inner layers, read-out: Prodrug 5% O2 Inner layers EC50
[4] = 5% O2, outer layers, read-out: Prodrug 5% O2 Outer layers EC50
[5] = 20% O2, outer layers, read-out: Prodrug 20% O2 Outer layers EC50

Row | SMILES | IC50 [1] [µM] | EC50 [2, 3] [µM] | EC50 [2, 4] [µM] | EC50 [2, 5] [µM] | Fraction of prodrug converted to active form, Hypoxic 0.2% O2 (FaDu cell line) | Fraction of prodrug converted to active form, Oxic 5% O2 (FaDu cell line)
1 | CC(c1cnn(C)c1[N+](=O)[O-])N(c1cnc2cc(N3CCOCC3)nc(O[C@H]3CC[C@@H](Nc4ncc(OCCN(C)C)cn4)CC3)c2c1)S(C)(=O)=O (stereo partly drawn) [LFA2073, N-[5-[4-[[5-[2-(dimethylamino)ethoxy]pyrimidin-2-yl]amino]cyclohexoxy]-7-morpholino-1,6-naphthyridin-3-yl]-N-[1-(1-methyl-5-nitro-pyrazol-4-yl)ethyl]methanesulfonamide] | 1 to 10 | 0.01 to 0.5 | 1 to 10 | 1 to 10 | B (B is 0.05 to 0.15) | C (C is 0.02 to 0.05)
2 | CC(c1cnc([N+](=O)[O-])n1C)N(c1cnc2cc(N3CCOCC3)nc(O[C@H]3CC[C@@H](Nc4ncc(CCN5CCOCC5)cn4)CC3)c2c1)S(C)(=O)=O (stereo partly drawn) [LFA2074, N-[1-(3-methyl-2-nitro-imidazol-4-yl)ethyl]-N-[7-morpholino-5-[4-[[5-(2-morpholinoethyl)pyrimidin-2-yl]amino]cyclohexoxy]-1,6-naphthyridin-3-yl]methanesulfonamide] | 1 to 10 | 0.01 to 0.5 | 0.5 to 1 | 1 to 10 | B (B is 0.05 to 0.15) | C (C is 0.02 to 0.05)
3 | CN(C)CCOc1cnc(N[C@H]2CC[C@@H](Oc3nc(N4CCOCC4)cc4ncc(N(Cc5cnn(C)c5[N+](=O)[O-])S(C)(=O)=O)cc34)CC2)nc1 [LFA2075, N-[5-[4-[[5-[2-(dimethylamino)ethoxy]pyrimidin-2-yl]amino]cyclohexoxy]-7-morpholino-1,6-naphthyridin-3-yl]-N-[(1-methyl-5-nitro-pyrazol-4-yl)methyl]methanesulfonamide] | 1 to 10 | 0.01 to 0.5 | 0.5 to 1 | 1 to 10 | B (B is 0.05 to 0.15) | B (B is 0.05 to 0.15)
4 | Cn1ncc(CN(c2cnc3cc(N4CCOCC4)nc(O[C@H]4CC[C@@H](Nc5ncc(OCCN6CCOCC6)cn5)CC4)c3c2)S(C)(=O)=O)c1[N+](=O)[O-] [LFA2076, N-[(1-methyl-5-nitro-pyrazol-4-yl)methyl]-N-[7-morpholino-5-[4-[[5-(2-morpholinoethoxy)pyrimidin-2-yl]amino]cyclohexoxy]-1,6-naphthyridin-3-yl]methanesulfonamide] | 1 to 10 | 0.01 to 0.5 | 0.01 to 0.5 | 0.01 to 0.5 | B (B is 0.05 to 0.15) | B (B is 0.05 to 0.15)
5 | CC(c1cnn(C)c1[N+](=O)[O-])N(c1cnc2cc(N3CCOCC3)nc(O[C@H]3CC[C@@H](Nc4ncc(OCCN5CCOCC5)cn4)CC3)c2c1)S(C)(=O)=O (stereo partly drawn) [LFA2077, N-[1-(1-methyl-5-nitro-pyrazol-4-yl)ethyl]-N-[7-morpholino-5-[4-[[5-(2-morpholinoethoxy)pyrimidin-2-yl]amino]cyclohexoxy]-1,6-naphthyridin-3-yl]methanesulfonamide] | 1 to 10 | 0.01 to 0.5 | 0.5 to 1 | 0.01 to 0.5 | B (B is 0.05 to 0.15) | B (B is 0.05 to 0.15)
6 | Cc1cc(C)nc(N[C@H]2CC[C@@H](Oc3nc(N4CCOCC4)cc4ncc(OCc5cnc([N+](=O)[O-])n5C)cc34)CC2)n1 [LFA2081, 4,6-dimethyl-N-[4-[[3-[(3-methyl-2-nitro-imidazol-4-yl)methoxy]-7-morpholino-1,6-naphthyridin-5-yl]oxy]cyclohexyl]pyrimidin-2-amine] | 10 to 30 | 0.5 to 1 | 1 to 10 | 1 to 10 | B (B is 0.05 to 0.15) | B (B is 0.05 to 0.15)
7 | Cc1cc(C)nc(N[C@H]2CC[C@@H](Oc3nc(N4CCOCC4)cc4ncc(OC(C)c5cnc([N+](=O)[O-])n5C)cc34)CC2)n1 (stereo partly drawn) [LFA2082, 4,6-dimethyl-N-[4-[[3-[1-(3-methyl-2-nitro-imidazol-4-yl)ethoxy]-7-morpholino-1,6-naphthyridin-5-yl]oxy]cyclohexyl]pyrimidin-2-amine] | 10 to 30 | 0.01 to 0.5 | 1 to 10 | 1 to 10 | A (A is 0.15 to 1) | C (C is 0.02 to 0.05)
8 | Cn1c(COc2cnc3cc(N4CCOCC4)nc(O[C@H]4CC[C@@H](Nc5ccccn5)CC4)c3c2)cnc1[N+](=O)[O-] [LFA2083, N-[4-[[3-[(3-methyl-2-nitro-imidazol-4-yl)methoxy]-7-morpholino-1,6-naphthyridin-5-yl]oxy]cyclohexyl]pyridin-2-amine] | 10 to 30 | 0.01 to 0.5 | 1 to 10 | 1 to 10 | A (A is 0.15 to 1) | C (C is 0.02 to 0.05)
9 | CC(Oc1cnc2cc(N3CCOCC3)nc(O[C@H]3CC[C@@H](Nc4ccccn4)CC3)c2c1)c1cnc([N+](=O)[O-])n1C (stereo partly drawn) [LFA2084, N-[4-[[3-[1-(3-methyl-2-nitro-imidazol-4-yl)ethoxy]-7-morpholino-1,6-naphthyridin-5-yl]oxy]cyclohexyl]pyridin-2-amine] | 10 to 30 | 0.01 to 0.5 | 1 to 10 | 10 to 100 | A (A is 0.15 to 1) | C (C is 0.02 to 0.05)
10 | CC(Oc1cnc2cc(N3CCOCC3)nc(O[C@H]3CC[C@@H](Nc4ncc(CN(C)C)cn4)CC3)c2c1)c1cnc([N+](=O)[O-])n1C (stereo partly drawn) [LFA2085, 5-[(dimethylamino)methyl]-N-[4-[[3-[1-(3-methyl-2-nitro-imidazol-4-yl)ethoxy]-7-morpholino-1,6-naphthyridin-5-yl]oxy]cyclohexyl]pyrimidin-2-amine] | 1 to 10 | 1 to 10 | 1 to 10 | 1 to 10 | B (B is 0.05 to 0.15) | D (D is 0 to 0.02)
11 | CN(C)Cc1cnc(N[C@H]2CC[C@@H](Oc3nc(N4CCOCC4)cc4ncc(OCc5cnc([N+](=O)[O-])n5C)cc34)CC2)nc1 [LFA2086, 5-[(dimethylamino)methyl]-N-[4-[[3-[(3-methyl-2-nitro-imidazol-4-yl)methoxy]-7-morpholino-1,6-naphthyridin-5-yl]oxy]cyclohexyl]pyrimidin-2-amine] | 10 to 30 | 1 to 10 | 1 to 10 | 1 to 10 | D (D is 0 to 0.02) | D (D is 0 to 0.02)
12 | CC(Oc1cnc2cc(N3CCOCC3)nc(O[C@H]3CC[C@@H](Nc4ncc(OCCN(C)C)cn4)CC3)c2c1)c1cnc([N+](=O)[O-])n1C (stereo partly drawn) [LFA2087, 5-[2-(dimethylamino)ethoxy]-N-[4-[[3-[1-(3-methyl-2-nitro-imidazol-4-yl)ethoxy]-7-morpholino-1,6-naphthyridin-5-yl]oxy]cyclohexyl]pyrimidin-2-amine] | 1 to 10 | 1 to 10 | 1 to 10 | 1 to 10 | A (A is 0.15 to 1) | D (D is 0 to 0.02)
13 | CN(C)CCOc1cnc(N[C@H]2CC[C@@H](Oc3nc(N4CCOCC4)cc4ncc(OCc5cnc([N+](=O)[O-])n5C)cc34)CC2)nc1 [LFA2088, 5-[2-(dimethylamino)ethoxy]-N-[4-[[3-[(3-methyl-2-nitro-imidazol-4-yl)methoxy]-7-morpholino-1,6-naphthyridin-5-yl]oxy]cyclohexyl]pyrimidin-2-amine] | 1 to 10 | 1 to 10 | 1 to 10 | 1 to 10 | B (B is 0.05 to 0.15) | D (D is 0 to 0.02)
14 | CC(Oc1cnc2cc(N3CCOCC3)nc(OC3CCC(Nc4ncc(OCCN5CCN(C)CC5)cn4)CC3)c2c1)c1cnn(C)c1[N+](=O)[O-] (stereo not drawn) [LFA2089, N-[4-[[3-[1-(1-methyl-5-nitro-pyrazol-4-yl)ethoxy]-7-morpholino-1,6-naphthyridin-5-yl]oxy]cyclohexyl]-5-[2-(4-methylpiperazin-1-yl)ethoxy]pyrimidin-2-amine] | 1 to 10 | 1 to 10 | 1 to 10 | 1 to 10 | B (B is 0.05 to 0.15) | D (D is 0 to 0.02)
15 | CC(NS(=O)(=O)c1cnc2cc(N3CCOCC3)nc(O[C@H]3CC[C@@H](Nc4ncc(OCCN5CCN(C)CC5)cn4)CC3)c2c1)c1cnc([N+](=O)[O-])n1C (stereo partly drawn) [LFA2090, N-[1-(3-methyl-2-nitro-imidazol-4-yl)ethyl]-5-[4-[[5-[2-(4-methylpiperazin-1-yl)ethoxy]pyrimidin-2-yl]amino]cyclohexoxy]-7-morpholino-1,6-naphthyridine-3-sulfonamide] | 10 to 30 | 10 to 100 | 10 to 100 | 10 to 100 | D (D is 0 to 0.02) | D (D is 0 to 0.02)
